The results in this text go back to patent US8790889B2, “Neuronal stimulation” (The University of Queensland, priority 2009, dated 2014).

Structures are written as SMILES. Counter-ions that a name gives are not always drawn.

One assay has as its system hippocampal precursors. The assay is described as follows: Slice-sphere assay (hippocampal organotypic slices, then neurosphere culture). As to conditions: slices treated at 100 μM. The class given is cell-based, rat. How it is done: D-glucose (Sigma-Aldrich) was added to the medium to a final concentration of 5 mM. Four filters, each containing 6-7 hippocampal slices, were generated from a single animal. Plates were incubated at 37° C. in a humidified 5% CO2 incubator and the slices were cultured for 6 days. To assess the influence of specific compounds on hippocampal precursor proliferation in the slice culture, compounds were added to the complete medium at the doses described below. Two filters were treated with the compounds for each dose per experiment. On every alternate day half the medium was removed and replaced with fresh medium containing the compounds. Slices were treated with serotonin at 10 μM and 100 μM and norepinephrine at 1 μM, 10 μM and 100 μM. […] Propranolol (10 μM) was used to block β adrenergic receptors in the slices. On the 6th day of culture, the hippocampal slices from each treatment group were pooled and the tissue was minced using a scalpel blade. Minced tissue was then treated with 0.1% trypsin-EDTA (Invitrogen) for 5 minutes at 37° C. […] A single cell suspension was achieved by gentle trituration. The total number of viable cells in an aliquot was counted on a haemocytometer based on the exclusion of 0.08% trypan blue (Sigma-Aldrich). The cells were then cultured in complete neurosphere medium containing EGF and bFGF. […] For each experiment there were 20 wells plated for each of the doses per treatment group. The plates were incubated at 37° C. in a humidified 5% CO2 incubator.

For another assay, the system named is hippocampal neurospheres. Briefly: Immunocytochemistry of neurospheres (multipotentiality). The class given is cell-based, mouse. How it is done:
We next determined the multipotentiality of the cells present within the neurospheres generated in the presence and absence of norepinephrine (FIG. 2b, c, d).
Control or norepinephrine-stimulated neurospheres were plated onto poly-ornithine-coated cover slips or poly-D-lysine-coated BioCoat eight-well culture slides (BD Biosciences) in serum-free basal medium without any mitogens. The neurospheres were allowed to flatten and adhere for 4-6 days in a humidified, 5% CO2 incubator. They were then fixed with 4% paraformaldehyde in 0.1M phosphate buffered saline (PBS) at 4° C. for 40 min, and immunocytochemistry was performed as described previously 38 using antibodies to the neuronal marker βIII tubulin (1:2000; Promega, Madison, Wis.), the astrocytic marker GFAP (1:500; DakoCytomation, Carpinteria, Calif.) and the oligodendrocyte marker MBP (1:500; Millipore, Sydney, Australia). 4′,6′-diamidino-2-phenylindole (DAPI; 1:5000; Sigma-Aldrich) was used as a nuclear stain. Slides were mounted using fluoromount (DakoCytomation) and viewed on a Zeiss-Axio Imager microscope. Images were captured using a digital camera linked to a computer using Zeiss software.

Assay [1] concerns adult hippocampal precursors. The assay is described as follows: Adult hippocampal neurosphere culture. The class given is cell-based, mouse. The procedure: Animals were treated in accordance with the Australian Code of Practice for the Care and Use of Animals for Scientific Purposes and ethics approval was obtained for all experiments from the Animal Ethics Committee of the University of Queensland. 8-10 week old male C57/B16 mice were killed by cervical dislocation and their brains removed. Brains were bisected along the midline in the sagittal plane. The hippocampi were isolated from the overlying cortex and minced using a scalpel blade. Minced tissue was digested in 0.1% papain (Invitrogen, Melbourne, Australia) for 20 minutes at 37° C., after which an excess of NeuroCult NSC basal medium (Stem Cell Technologies, Vancouver, Canada) was added to halt the digestion. Tissue was then centrifuged at 100 rcf for 5 minutes, the resulting pellet was resuspended in 1 ml of complete neurosphere medium, and a single cell suspension was achieved by gentle trituration. The cells were filtered through a 40 μm cell sieve (BD Biosciences, Sydney, Australia) and resuspended in NeuroCult NSC basal medium containing NeuroCult proliferation supplements (Stem Cell Technologies), 2% bovine serum albumin (Invitrogen) and 2 μg/ml heparin (Sigma-Aldrich, Sydney, Australia). The growth factors added were 20 ng/ml EGF (receptor grade, BD Biosciences) and 10 ng/ml bFGF (recombinant bovine, Roche, Basel, Switzerland). The cells were then plated in a 96-well plate and cultured in complete neurosphere medium containing EGF and bFGF, in the presence or absence of 5-hydroxytryptamine hydrochloride (serotonin; 100 nM, 1 μM, 10 μM), L-(−)-noradrenaline (+)-bitartrate salt monohydrate (norepinephrine; 100 nM, 1 μM, 10 μM) or KCl (15 mM). The adrenergic receptor antagonists used were prazosin (100 nM), yohimbine (1 μM), propranolol (1 μM), CGP20712 (10 nM), ICI118,551 (10 nM) and SR59230A (10 nM). BRL37344 was used as a selective β3 adrenergic receptor agonist. All the compounds were purchased from Sigma-Aldrich. The number of primary neurospheres was counted on day 10-13 and expressed as a percentage relative to the control.

For another assay, the system named is Hes5-GFP-positive cells. Briefly: Neurosphere generation from FACS-sorted Hes5-GFP-positive cells. The class given is cell-based, mouse. How it is done: Brains from 8-12 weeks old male Hes5-GFP mice were removed and hippocampi were isolated as described earlier. A live cell suspension was prepared from the hippocampus using 0.1% papain, and the dead cells were labelled with propidium iodide (1 μg/ml). GFP-positive and -negative cells were then purified by fluorescence-activated cell sorting (FACS). Cells were sorted on a FACS Vantage (Becton Dickinson, Melbourne, Australia) with DIVA software. The […] was set relative to the basal fluorescence levels obtained from GFP-negative wild-type littermate controls and a conservative approach was used in selecting only high GFP-expressing cells. The cells were collected in basal medium and plated into 96-well tissue culture plates in medium containing EGF+bFGF with or without norepinephrine (10 μM).

Assay [2] relates to norepinephrine-stimulated large neurospheres. Briefly: Hippocampal neurosphere passaging (self-renewal). As to conditions: 10 μM; 15 out of 21. The class given is cell-based, mouse. The text has this:
To ascertain whether the norepinephrine-stimulated large neurospheres indeed reflected the activation of stem cells, individual neurospheres were selected and subjected to long-term passaging to assess their self-renewal capacity.
As a first step primary, neurospheres were individually dissociated and replated into fresh media not containing norepinephrine. Primary neurospheres from the unstimulated hippocampus were also passaged as single spheres. Hippocampal neurosphere cultures were initiated by removing 150 μl of the medium from wells containing single neurospheres, treating with 100 μl 0.1% trypsin-EDTA for 2 minutes at room temperature, followed by washing with 100 μl trypsin inhibitor in HEM. The neurospheres were mechanically triturated until dissociated and replated in 24 well plates in 2 ml of complete medium. Neurospheres were passaged every 10 days by centrifuging the neurospheres, removing the medium and incubating in 1 ml of 0.1% trypsin-EDTA for 2 minutes at room temperature. After the addition of an equal volume of trypsin inhibitor, the neurospheres were centrifuged at 100 rcf for 5 minutes and the supernatant removed. Cells were mechanically triturated in 500 μl of complete medium and trypan blue staining was used to evaluate the number of cells, both viable and total number, on a haemocytometer. […]

For `NC[C@H](O)c1ccc(O)c(O)c1` [norepinephrine, L-(−)-noradrenaline (+)-bitartrate salt monohydrate], the “increase in neurosphere frequency / precursor activity” value with hippocampal precursors is reported as 3.5 fold. Besides, in the assay on hippocampal neurospheres (all large neurospheres examined, n=9), the “neurons per stimulated large neurosphere” value is listed as more than 50 neurons. For the same molecule, in the assay on hippocampal neurospheres (stimulated neurospheres), the “neurospheres containing MBP-positive oligodendrocytes” value is “One third”. The “neurospheres containing βIII tubulin-positive neurons” value with hippocampal neurospheres (stimulated neurospheres examined) is given as 62 out of 82. Besides, the “neurosphere numbers compared to the control” value in assay [1] (100 nM and 1 μM) is on record as “significant increase”. Further, the size of neurospheres entry in assay [1] (10 μM) is on record as “larger than the control neurospheres”. Further, the “very large neurospheres generated” value in assay [1] (norepinephrine with or without SR59230A 10 nM) is given as 12±2.08 neurospheres. In addition, the “very large neurospheres (>200 μm in diameter)” value with Hes5-GFP-positive cells (10 μM, GFP-positive population) was 7.3±0.8 neurospheres per hippocampus. Further, the “increase in neurosphere numbers” value in the assay on Hes5-GFP-positive cells (Hes5-GFP-positive cells plated at clonal density) stood at 215.4±23.5%. Also, the “number of neurospheres from purified Hes5-GFP-positive precursor population” value in the assay with Hes5-GFP-positive cells (n=2 experiments, SR59230A 10 nM) stood at 45.5±2.5 neurospheres. Further, the “proportion of stimulated large neurospheres (>200 μm) that could be passaged over 10 times” value in assay [2] came to 71.4%.
